The source of these data is ChEMBL document CHEMBL6078668, “Synthesis and biological evaluation of lappaconitine analogues as potential anti-neuroinflammatory agents by side chain modification and scaffold hopping strategy” (Bioorg Med Chem, 2025).

What is called inhibition is the percentage by which the read-out fell short of the control.

The test system of one data set is BV-2. The data set can be described thus: Anti-neuroinflammatory activity against LPS-stimulated C57BL/6 mouse BV-2 cells assessed as inhibition of NO release at 30 uM preincubated with compound for 4 hrs followed by LPS addition and measured after 24 hrs by Griess reagent based assay relative to control. As to conditions: C57BL/6, BV-2, time 28 hrs. Format: functional. Background: Nitrite, measured by Griess reagent, commonly stands in for NO production.

Data set [1] is described as follows: Cytotoxicity against C57BL/6 mouse BV-2 cells assessed as survival rate at 30 uM incubated for 24 hrs by MTT assay relative to control. The data set is classed as toxicity, cell-based. As to conditions: read-out: Survival.

In the case of `CCN1C[C@]2(COC(=O)c3ccccc3NS(=O)(=O)c3cccc(F)c3)CC[C@H](OC)[C@]34C1[C@@H](C[C@H]23)[C@@]1(O)C[C@H](OC)[C@H]2C[C@@H]4[C@]1(O)[C@H]2OC`, the inhibition at 30 µM in the data set on BV-2 is 20.1%. Also, in data set [1], the viability at 24 h, 30 µM turned out to be 102%.

As to `CCN1C[C@]2(OC(=O)c3ccccc3NC(=O)c3ccc(OC)c(OC)c3)CC[C@H](OC)[C@]34C1[C@@H](C[C@H]23)[C@@]1(O)C[C@H](OC)[C@H]2C[C@@H]4[C@]1(O)[C@H]2OC`, the inhibition at 30 µM with BV-2 was 14.3%. In data set [1], the viability at 24 h, 30 µM came to 102%.

For `CCN1C[C@]2(OC(=O)c3ccccc3NC(=O)S(=O)(=O)c3cccc4cccnc34)CC[C@H](OC)[C@]34C1[C@@H](C[C@H]23)[C@@]1(O)C[C@H](OC)[C@H]2C[C@@H]4[C@]1(O)[C@H]2OC`, the inhibition at 30 µM with BV-2 was found to be 46.2%. Also, the viability at 24 h, 30 µM in data set [1] worked out at 103%.

On to `CCCCOC(=O)c1ccccc1NS(=O)(=O)c1ccc(Br)s1`, for which the inhibition at 30 µM with BV-2 came to 34.6%. Further, the viability at 24 h, 30 µM in data set [1] was found to be 104%.

With `CCN1C[C@]2(OC(=O)c3ccccc3NC(=O)C3CCOC3)CC[C@H](OC)[C@]34C1[C@@H](C[C@H]23)[C@@]1(O)C[C@H](OC)[C@H]2C[C@@H]4[C@]1(O)[C@H]2OC` (stereo partly specified), the inhibition at 30 µM with BV-2 came to 32.4%. The viability at 24 h, 30 µM in data set [1] came out at 109%.

`CCN1C[C@]2(OC(=O)c3ccccc3NC(=O)S(=O)(=O)c3cccc(Br)c3)CC[C@H](OC)[C@]34C1[C@@H](C[C@H]23)[C@@]1(O)C[C@H](OC)[C@H]2C[C@@H]4[C@]1(O)[C@H]2OC`: the inhibition at 30 µM in the data set on BV-2 amounted to 10%. In addition, the viability at 24 h, 30 µM in data set [1] came to 102%.

Turning to `CCC(=O)Nc1ccccc1C(=O)O[C@@]12CC[C@H](OC)[C@]34C([C@@H](C[C@H]13)[C@@]1(O)C[C@H](OC)[C@H]3C[C@@H]4[C@]1(O)[C@H]3OC)N(CC)C2`, the inhibition at 30 µM in the data set with BV-2 came to 19.1%. For the same compound, the viability at 24 h, 30 µM in data set [1] worked out at 96.1%.

Take `CCN1C[C@]2(OC(=O)c3ccccc3NC(=O)S(=O)(=O)c3ccc(NC(C)=O)cc3)CC[C@H](OC)[C@]34C1[C@@H](C[C@H]23)[C@@]1(O)C[C@H](OC)[C@H]2C[C@@H]4[C@]1(O)[C@H]2OC`: in the data set on BV-2, the inhibition at 30 µM stood at 10.4%. For the same compound, in data set [1], the viability at 24 h, 30 µM was 104%.

As to `CCN1C[C@]2(OC(=O)c3ccccc3NC(=O)c3ccc(S(C)(=O)=O)cc3)CC[C@H](OC)[C@]34C1[C@@H](C[C@H]23)[C@@]1(O)C[C@H](OC)[C@H]2C[C@@H]4[C@]1(O)[C@H]2OC`, in the data set on BV-2, the inhibition at 30 µM is 20%. Besides, the viability at 24 h, 30 µM in data set [1] was 103%.

In the case of `CCO/C=C/C(=O)Nc1ccccc1C(=O)O[C@@]12CC[C@H](OC)[C@]34C([C@@H](C[C@H]13)[C@@]1(O)C[C@H](OC)[C@H]3C[C@@H]4[C@]1(O)[C@H]3OC)N(CC)C2`, in the data set with BV-2, the inhibition at 30 µM stood at 28.7%. For the same compound, the viability at 24 h, 30 µM in data set [1] stood at 110%.

Take `CCN1C[C@]2(OC(=O)c3ccccc3NC(=O)S(=O)(=O)c3ccc(C(C)=O)cc3)CC[C@H](OC)[C@]34C1[C@@H](C[C@H]23)[C@@]1(O)C[C@H](OC)[C@H]2C[C@@H]4[C@]1(O)[C@H]2OC`: the inhibition at 30 µM in the data set with BV-2 is 18%. For the same compound, the viability at 24 h, 30 µM in data set [1] came out at 92.6%.

Take `CCN1C[C@]2(COC(=O)c3ccccc3NS(=O)(=O)c3ccc(Br)s3)CC[C@H](OC)[C@]34C1[C@@H](C[C@H]23)[C@@]1(O)C[C@H](OC)[C@H]2C[C@@H]4[C@]1(O)[C@H]2O`: the inhibition at 30 µM in the data set with BV-2 came out at 26.2%. For the same compound, the viability at 24 h, 30 µM in data set [1] turned out to be 104%.

Regarding `CCN1C[C@]2(OC(=O)c3ccccc3NC(=O)S(=O)(=O)c3ccc(F)c(Cl)c3)CC[C@H](OC)[C@]34C1[C@@H](C[C@H]23)[C@@]1(O)C[C@H](OC)[C@H]2C[C@@H]4[C@]1(O)[C@H]2OC`, the inhibition at 30 µM in the data set on BV-2 stood at 26.2%. The viability at 24 h, 30 µM in data set [1] came to 93.6%.
